# US20080275134A1, “Methods for Treatment of Retinal Degenerative Disease” (University of Washington, priority 2005, published 2008)
# Legend:
# isomerase = target: T1, isomerase (Bos taurus, UniProt Q28175); assay: isomerase reaction: 11-cis-retinol production by RPE microsomes from all-trans-retinol; type: biochemical, bovine
# T1 construct: Purified RPE microsomes were the source of the enzymes; from tissue; host or cells: bovine retinal pigment epithelium microsomes
# T1 sequence (Q28175 2-533 limits assumed): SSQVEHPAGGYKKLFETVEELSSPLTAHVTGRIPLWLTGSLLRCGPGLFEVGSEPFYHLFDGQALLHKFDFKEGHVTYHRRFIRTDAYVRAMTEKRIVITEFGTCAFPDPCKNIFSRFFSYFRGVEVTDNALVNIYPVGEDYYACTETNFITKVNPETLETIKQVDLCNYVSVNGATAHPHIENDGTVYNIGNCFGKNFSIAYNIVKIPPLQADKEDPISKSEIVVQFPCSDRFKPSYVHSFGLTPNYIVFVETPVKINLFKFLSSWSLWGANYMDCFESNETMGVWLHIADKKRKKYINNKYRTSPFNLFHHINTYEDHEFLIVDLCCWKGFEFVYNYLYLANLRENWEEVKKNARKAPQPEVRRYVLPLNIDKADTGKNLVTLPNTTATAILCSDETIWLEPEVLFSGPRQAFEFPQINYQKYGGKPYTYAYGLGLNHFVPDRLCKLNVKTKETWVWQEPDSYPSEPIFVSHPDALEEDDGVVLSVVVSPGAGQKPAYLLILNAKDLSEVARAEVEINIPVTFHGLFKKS
# Experimental: To test if 11-cis-retinylamine (11-cis Ret-NH2) affects isomerization and esterification, an in vitro assay was employed. In this assay both of the all-trans-retinyl esters formed in the reaction catalyzed by LRAT and 11-cis-retinol production by isomerase were measured (6). Purified RPE microsomes were the source of the enzymes, and all-trans-retinol was the substrate. […] Inhibition of isomerization by Ret-NH2 is not due to binding of CRALBP or competition with 11-cis-retinol for binding to CRALBP. […] An increased concentration of all-trans-retinol lowered the level of inhibition, as illustrated in FIG. 2B. […] Dixon's and Lineweaver-Burk plots in the standard assay conditions yielded Ki=0.1 μM for Ret-NH2 when all-trans-retinol (KM=0.3 μM) was assumed to be a substrate. […] This estimated value reflects the very potent nature of the inhibition by 11-cis-Ret-NH2.
# Materials—Fresh bovine eyes were obtained from a local slaughterhouse (Schenk Packing Co., Inc., Stanwood, Wash.). Preparation of bovine RPE microsomes was performed according to previously described methods (Stecher et al., J Biol Chem 274:8577-85, 1999). All chemicals were purchased from Sigma-Aldrich (St. Louis, Mo.). 11-cis-Retinal was obtained from Dr. Rosalie Crouch (Charleston, S.C.).
# Reaction conditions for isomerase and LRAT reaction—The isomerase reaction was performed essentially as described previously (Stecher et al., J Biol Chem 274:8577-85, 1999). The reaction was carried out in 10 mM BTP buffer, pH 7.5, 1% BSA, containing 1 mM ATP and 6 μM apo-CRALBP. To investigate inhibition properties of Ret-NH2 and its derivatives, RPE microsomes were preincubated for 5 min in 37° C. with the indicated compound in 10 mM BTP buffer, pH 7.5, 1% BSA, 1 mM ATP prior to addition of apo-CRALBP and all-trans-retinol. Ret-NH2 and its derivatives were delivered to the reaction mixture in 1 μl of DMF, and the same volume of DMF was added to the control reaction. Each experiment was performed three times in duplicate. The average values were used and the standard deviations were calculated.
# [1] = test system: regeneration of vision chromophore (11-cis-retinal); assay: regeneration of 11-cis-retinal in mouse eyes after gavage and light bleach, HPLC retinoid analysis; type: in vivo
# Experimental: Mice were gavaged with all-trains-Ret-NH2, exposed to intense light for 20 min, and then allowed to recover in the dark for 5 hours. The total amount of different forms of retinoids in all experiments was unchanged. […] For this experiment mice were treated with both 9-cis-retinol and all-trans-Ret-NH2, and bleached after 24 hours, and were allowed to recover for 5 hours in the dark. The presence of 9-cis-retinal was confirmed in treated animals (see peaks 4 and 4′ in FIG. 4A bottom panel, corresponding to syn- and anti-9-cis-retinal oximes, respectively). 11-cis-Retinal was not reduced and/or esterified after treatment with Ret-NH2. […] This supports the idea that Ret-NH2 is a specific inhibitor of the isomerization reaction.
# A. Chromatographic separation of nonpolar retinoids from WT mouse eyes. Mice were gavaged with all-trans-Ret-NH2 24 hours prior to bleaching for 20 min at 150 cd·m^−2 W in the Ganzfeld chamber. Regeneration of 11-cis-retinal was allowed for 24 hours in the dark, and retinoids were extracted from the eye and separated by normal phase HPLC as described in Materials and Methods. The peaks were identified based on elution time and absorption spectra correspond to the following retinoids: 1, all-trans-retinyl esters; 2,2′, syn- and anti-11-cis-retinal oximes; 3, syn-all-trans-retinal oxime; 4,4′, syn- and anti-9-cis-retinal oximes; 5, all-trans-retinol. B. Changes of 11-cis-retinal oxime levels at increasing doses of all-trans-Ret-NH2 during 5 hours or 24 hours of dark adaptation. Square indicates the level of 11-cis-retinal oximes that was present in mice gavaged with vegetable oil without retinoids just after bleaching, and arrow indicates the increase of visual chromophore during 5 hours of dark adaptation. Triangles correspond to the level of 11-cis-retinal found in the mice gavaged with 50 mg/kg of 13-cis-RA. C and D. Single flash ERG responses of increasing intensity for all-trans-Ret-NH2 treated mice and control mice. Serial responses to increasing flash stimuli were obtained for all-trans-Ret-NH2 treated and control mice for selected intensities (C) and plotted as a function of a-wave and b-wave versus varying light intensities under dark-adapted conditions (D) before bleach and at 5 hours and 24 hours after bleach. The dark-adapted mice were bleached with intense constant illumination (150 cd·m^−2) for 20 min. […] SE bars are shown.
# Chromatographic separation of nonpolar retinoids from WT mouse eyes. Mice were gavaged with 100 mg/kg of all-trans-Ret-NH2 24 hours prior to bleaching. Mice were next exposed to 500 cd m^−2 for 48 min bleaching in the Ganzfeld chamber. Regeneration of 11-cis-retinal was allowed for 24 hours in the dark, and retinoids were extracted from the eye and separated by normal phase HPLC as described in Materials and Methods. The peaks identified based on elution time and absorption spectra correspond to the following retinoids: 1, all-trans-retinyl esters; 2,2′, syn- and anti-1-cis-retinal oximes; 3,3′ syn- and anti-all-trans-retinal oximes; 4, all-trans-retinol.
# Mice were gavaged with the solution of inhibitor in vegetable oil (control—non-treated, RPN—retinylpalmitamide, RAN—retinylacetamide, Ret—NH2-all-trans-retinylamine), kept in dark for 16 hours, then light stimulated and kept in dark for additional 5 hours before their eyes were analyzed.
# Mouse retinoid extraction and analysis—Retinoid analysis was performed under dim red light as described previously (Maeda et al., J. Neurochem 85:944-956, 2003; Van Hooser et al., J Biol Chem 277:19173-82, 2002). Mice were gavaged with retinoids as described previously (Van Hooser et al., J Biol Chem 277:19173-82, 2002).
compound,measurement,setting,value
"CC1=C(/C=C/C(C)=C/C=C/C(C)=C/CN)C(C)(C)CCC1 [Ret-NH2, Retinylamine]",Ki,"isomerase; Dixon's and Lineweaver-Burk plots, standard assay conditions, all-trans-retinol assumed to be substrate, estimated value",0.1 µM
same,mode of isomerase inhibition,isomerase; initial rate vs concentrations of all-trans-retinol and 11-cis-Ret-NH2,reversible and can be competed out by all-trans-retinol
same,change in amount of Ret-NH2 between start and end of the assay (HPLC),isomerase; time course of the in vitro isomerase assay,≤ 5%
same,"IC50 of chromophore recovery, 5 hours recovery","[1]; 20 min high-intensity light, 5 hours dark",2 mg/kg
same,"IC50 of chromophore recovery, 24 hours recovery","[1]; 20 min high-intensity light, 24 hours dark",24 mg/kg
same,recovery of chromophore after all 11-cis-retinal is photoisomerized,"[1]; longer light treatment (100 mg/kg, 500 cd m^-2 for 48 min, 24 hours dark)",completely blocks recovery of chromophore
"CC1=C(/C=C/C(C)=C/C=C/C(C)=C/CN)C(C)(C)CCC1 [all-trans-Ret-NH2, all-trans-retinylamine]",IC50,"isomerase; RPE microsomes, all-trans-retinol substrate, read-out: IC50, inhibition of 11-cis-retinol production",0.5 µM
same,retinoid levels in the eye without light exposure,"[1]; 50 mg/kg, not exposed to light, after 30 hours",normal levels of retinoids
same,11-cis-retinal in the eye after bleach and dark recovery,"[1]; gavage, intense light 20 min, 5 hours in the dark",only a residual amount
same,levels of all-trans-retinyl esters in the eye,"[1]; gavage, intense light 20 min, 5 hours in the dark, vs controls",elevated
same,"uptake, transport or oxidation of 9-cis-retinol","[1]; mice given 9-cis-retinol and all-trans-Ret-NH2, bleached after 24 hours, 5 hours dark",did not affect
